Reference: patent US20230234936A1, “COMPOUND FOR TARGETING AND DEGRADING PROTEIN, AND PREPARATION METHOD THEREFOR AND USE THEREOF” (SHANGHAI LEADINGTAC PHARMACEUTICAL CO., LTD., priority 2020, published 2023)

How the values were obtained:
IKZF1 in L363 cells = biological target: T1, IKZF1 in L363 cells (Homo sapiens, UniProt Q13422+Q96SW2); test: Degradation of IKZF1 in L363 cells (Western blot); format: cell-based; conditions: 1000 nM, 16 hours
T1 construct: endogenous in cells; host or cells: L363
Procedure: (§1) The 24-well cell culture plate was inoculated with 0.95 mL L363 cells (Nanjing Co-bioer) per well with a cell density of 6×10^5 cells/well. The cell plate was placed in a 5% carbon dioxide incubator and cultured at 37° C. for 8 hours, then 50 μL of compound solution was added. The final concentration of the compound was 1000 nM. After continuing to culture for 16 hours, the cells were collected into a 1.5 mL centrifuge tube and centrifuged at 3000 rpm and 4° C. for 5 minutes. Cell precipitation was cleaned twice with 1×DPBS, resuspended cells were lysed with 100 μL lysate (cell lysate was Western and IP cell lysate (Beyotime), supplemented with 1 mM mixture of phenylmethylsulfonyl fluoride and protease inhibitor (Beyotime)), left on ice for 30 minutes, then centrifuged at 14000 g at 4° C. for 10 minutes, and the supernatant was taken to detect IKZF1 and IKZF3 protein level by Western blot.
(§2) The total protein concentration in the supernatant of cell lysis was determined by BCA protein quantitative kit (Tiangen). According to the concentration of total protein detected by BCA, the supernatant was adjusted to 0.2 μg/μL with PBS and 5× SDS-PAGE protein loading buffer (Beyotime), bathed in water at 100° C. for 10 minutes, then placed in ice bath for 5 minutes, centrifuged at 14000 g and 4° C. for 5 minutes, and then collected as WB loading sample. Prefabricated glue (KeyGEN) was used for protein electrophoresis with a loading amount of 10 μL (total protein 2 μg). After Tris-MOPS-SDS electrophoresis solution (Adamas), 120V constant pressure electrophoresis was performed. After electrophoresis, the protein on the adhesive strip was transferred to PVDF membrane with a constant current of […] for 50 minutes. After the membrane was transferred, the membrane was incubated in 5% bovine serum albumin solution for 2 hours at room temperature. After blocking, PVDF membranes were incubated with IKZF1 primary antibody (CST) and IKZF3 primary antibody (Abcam) overnight at 4°, the membranes were washed with TBST buffer (2.4 g Tris, 8.8 g NaCl, 1.5 mL Tween 20, pH adjusted to 7.4, constant volume to IL) for 30 minutes, incubated with secondary antibody (Abcam) for 2 hours at room temperature, finally incubated with Clarity Western ECL Substrate(BIO-RAD) for 5 minutes for luminescence development, chemiluminescence imaging system (Clinx, chemiScope 6200 Touch) for development and protein mapping photography. The protein map was analyzed by Clinx chemiluminescence analysis software for grayscale values. Using the formula: grayscale correction value=(target protein grayscale value/corresponding internal reference grayscale value)×10^3, the grayscale correction value of each sample was calculated. The degradation rate was calculated by comparing with the grayscale correction value of the control group.

IRAK4 kinase = biological target: T2, IRAK4 kinase (Homo sapiens, UniProt Q9NWZ3); test: IRAK4 kinase activity test (KinEASE-STK S1 HTRF kit); format: biochemical; conditions: 2.5 nM kinase, 1 μM biotinylated polypeptide substrate, 7 μM ATP, 37° C. 120 min
T2 sequence (Q9NWZ3 1-460): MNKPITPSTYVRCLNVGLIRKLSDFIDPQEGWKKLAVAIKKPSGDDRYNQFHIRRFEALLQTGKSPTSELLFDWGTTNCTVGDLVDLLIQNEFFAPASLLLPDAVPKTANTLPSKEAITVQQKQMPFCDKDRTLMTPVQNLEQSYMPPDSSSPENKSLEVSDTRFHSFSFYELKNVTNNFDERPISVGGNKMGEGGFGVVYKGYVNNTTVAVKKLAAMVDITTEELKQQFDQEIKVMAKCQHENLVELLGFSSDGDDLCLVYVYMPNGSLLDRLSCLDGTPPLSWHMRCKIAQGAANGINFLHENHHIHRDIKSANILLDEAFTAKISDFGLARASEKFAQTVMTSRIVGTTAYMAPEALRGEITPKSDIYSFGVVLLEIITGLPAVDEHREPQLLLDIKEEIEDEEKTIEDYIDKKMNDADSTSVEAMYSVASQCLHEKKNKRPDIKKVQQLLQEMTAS
Summary of the method: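 Compound in DMSO, serially diluted to 10000–0.038 nM final, incubated with 2.5 nM kinase, 1 μM biotinylated peptide substrate and 7 μM ATP at 37° C for 120 min. Eu-anti-phospho-Ser/Thr antibody plus streptavidin-XL665 stopped the reaction (1 h RT). HTRF 665/620 nm ratio gave % inhibition versus control; IC50 from nonlinear log-concentration fit.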

[1] = biological target: T3, IRAK4 protein in THP-1 cells (Homo sapiens, UniProt Q9NWZ3); test: Degradation of IRAK4 in THP-1 cells (Western blot); format: cell-based; conditions: 24 hours, compound 1-3000 nM
T3 construct: endogenous in cells; host or cells: THP-1
T3 sequence (Q9NWZ3 1-460): T2 sequence (Q9NWZ3 1-460)
Summary of the method: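 THP-1 cells (5×10^5/well) treated 24 h with compound at 1–3000 nM final. IRAK4 in lysates quantified by Western blot, normalized to internal reference and compared with control to give degradation rate; DC50 and Dmax from nonlinear fit of log concentration.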

IKZF3 in L363 cells = biological target: T4, IKZF3 in L363 cells (Homo sapiens, UniProt Q96SW2+Q9UKT9); test: Degradation of IKZF3 in L363 cells (Western blot); format: cell-based; conditions: 1000 nM, 16 hours
T4 construct: endogenous in cells; host or cells: L363
Procedure: as §1, §2

T1 sequence (Q13422 whole entry): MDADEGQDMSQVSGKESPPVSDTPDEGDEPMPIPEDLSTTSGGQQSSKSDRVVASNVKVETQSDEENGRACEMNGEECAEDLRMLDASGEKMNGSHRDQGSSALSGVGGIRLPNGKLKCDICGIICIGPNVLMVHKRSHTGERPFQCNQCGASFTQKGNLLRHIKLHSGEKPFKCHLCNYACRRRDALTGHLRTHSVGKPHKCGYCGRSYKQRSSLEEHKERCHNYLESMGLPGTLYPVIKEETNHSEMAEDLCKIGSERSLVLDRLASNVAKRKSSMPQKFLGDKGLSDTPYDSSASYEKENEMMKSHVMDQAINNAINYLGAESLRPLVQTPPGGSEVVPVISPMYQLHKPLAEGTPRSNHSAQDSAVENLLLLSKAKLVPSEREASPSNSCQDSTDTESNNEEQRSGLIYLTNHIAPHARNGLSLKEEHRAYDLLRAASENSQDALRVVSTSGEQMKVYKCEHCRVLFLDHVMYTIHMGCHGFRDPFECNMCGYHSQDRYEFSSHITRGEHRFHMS
T1 sequence (Q96SW2 whole entry): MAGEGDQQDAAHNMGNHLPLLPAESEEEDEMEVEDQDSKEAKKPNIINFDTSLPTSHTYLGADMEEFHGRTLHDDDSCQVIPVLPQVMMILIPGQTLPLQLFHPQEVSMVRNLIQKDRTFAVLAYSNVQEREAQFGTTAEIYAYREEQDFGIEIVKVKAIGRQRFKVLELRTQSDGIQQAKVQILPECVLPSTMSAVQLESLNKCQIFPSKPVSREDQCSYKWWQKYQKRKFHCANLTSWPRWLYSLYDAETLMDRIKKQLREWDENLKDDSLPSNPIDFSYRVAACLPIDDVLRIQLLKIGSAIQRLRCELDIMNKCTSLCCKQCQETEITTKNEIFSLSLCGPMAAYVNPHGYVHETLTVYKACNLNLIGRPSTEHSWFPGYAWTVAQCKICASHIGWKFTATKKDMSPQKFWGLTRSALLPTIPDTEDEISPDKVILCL
T1 sequence (Q16531 whole entry partner): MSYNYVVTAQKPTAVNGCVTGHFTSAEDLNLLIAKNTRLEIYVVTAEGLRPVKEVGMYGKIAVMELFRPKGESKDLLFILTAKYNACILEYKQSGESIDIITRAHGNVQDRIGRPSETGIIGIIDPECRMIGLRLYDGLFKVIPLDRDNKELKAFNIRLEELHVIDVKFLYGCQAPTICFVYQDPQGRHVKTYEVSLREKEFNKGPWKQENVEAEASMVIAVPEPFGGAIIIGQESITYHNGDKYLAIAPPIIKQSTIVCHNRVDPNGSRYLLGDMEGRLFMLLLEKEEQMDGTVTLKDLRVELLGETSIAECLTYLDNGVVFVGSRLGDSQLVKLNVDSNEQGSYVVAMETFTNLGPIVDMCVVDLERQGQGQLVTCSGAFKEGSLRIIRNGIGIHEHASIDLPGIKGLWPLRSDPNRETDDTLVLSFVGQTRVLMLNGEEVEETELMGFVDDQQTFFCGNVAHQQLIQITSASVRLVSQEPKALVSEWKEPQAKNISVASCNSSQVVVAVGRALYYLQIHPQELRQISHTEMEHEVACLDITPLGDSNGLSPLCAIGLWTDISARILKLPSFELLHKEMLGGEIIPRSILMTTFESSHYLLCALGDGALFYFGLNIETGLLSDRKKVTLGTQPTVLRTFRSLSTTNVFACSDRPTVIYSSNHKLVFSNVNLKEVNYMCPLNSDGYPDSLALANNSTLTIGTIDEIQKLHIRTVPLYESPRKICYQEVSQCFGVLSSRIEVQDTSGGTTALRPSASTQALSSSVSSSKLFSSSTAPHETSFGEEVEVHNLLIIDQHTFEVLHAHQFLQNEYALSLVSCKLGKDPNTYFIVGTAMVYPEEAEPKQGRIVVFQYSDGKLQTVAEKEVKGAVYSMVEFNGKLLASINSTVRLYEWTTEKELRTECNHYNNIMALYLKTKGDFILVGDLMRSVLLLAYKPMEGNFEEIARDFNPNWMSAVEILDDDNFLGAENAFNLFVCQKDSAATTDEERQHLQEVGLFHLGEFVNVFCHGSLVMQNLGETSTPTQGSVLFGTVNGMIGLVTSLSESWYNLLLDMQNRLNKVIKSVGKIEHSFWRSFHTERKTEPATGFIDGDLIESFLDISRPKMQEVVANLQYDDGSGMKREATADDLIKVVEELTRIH
T4 sequence (Q9UKT9 whole entry): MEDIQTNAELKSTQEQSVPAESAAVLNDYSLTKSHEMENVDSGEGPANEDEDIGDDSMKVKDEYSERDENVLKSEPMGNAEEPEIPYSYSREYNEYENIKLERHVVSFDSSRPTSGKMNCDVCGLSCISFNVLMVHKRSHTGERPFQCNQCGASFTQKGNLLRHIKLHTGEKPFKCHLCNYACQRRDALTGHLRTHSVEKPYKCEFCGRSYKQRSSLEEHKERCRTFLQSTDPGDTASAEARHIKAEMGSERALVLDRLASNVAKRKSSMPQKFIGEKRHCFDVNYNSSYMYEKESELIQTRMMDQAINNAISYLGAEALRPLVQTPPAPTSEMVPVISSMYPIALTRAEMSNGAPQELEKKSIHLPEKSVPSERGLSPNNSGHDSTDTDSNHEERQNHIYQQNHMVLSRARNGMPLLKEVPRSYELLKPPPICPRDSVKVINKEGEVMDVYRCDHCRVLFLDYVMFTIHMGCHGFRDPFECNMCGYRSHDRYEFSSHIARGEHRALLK
T4 sequence (Q96SW2 whole entry): as the sequence (Q96SW2 whole entry) above
T4 sequence (Q16531 whole entry partner): as the sequence (Q16531 whole entry partner) above

Structure (SMILES)	IKZF1 degradation rate (IKZF1 in L363 cells) [%]	IC50 (IRAK4 kinase) [nM]	DC50 [1] [nM]	Dmax [1] [%]	IKZF3 degradation rate (IKZF3 in L363 cells) [%]
CC(C)(O)c1cc2nn(C3CCN(CCC4CCC5(CC4)CCN(C(=O)c4ccc(F)c(N6CCC(=O)NC6=O)c4)CC5)CC3)cc2cc1NC(=O)c1cccc(C(F)(F)F)n1 [Example 34, N-(2-(1-(2-(3-(3-(2,4-dioxotetrahydro-pyrimidin-1 (2H)-yl)-4-fluoro-benzoyl)-3-azaspiro[5.5]undec-9-yl)ethyl)piperidin-4-yl)-6-(2-hydroxyprop-2-yl)-2H-indazol-5-yl)-6-(trifluoro-methyl) pyridinecarbox-amide]	10.2 ± 1.8	16.5	2.5	98.1	−2.2 ± 2.8
Nc1cccc2c1C(=O)N(C1CCC(=O)NC1=O)C2=O (stereo not drawn) [Pomalidomide]	99.7 ± 0.2				98.6 ± 0.6
CC(C)(O)c1cc2nn(C3CCN(CCC4CCC5(CC4)CCN(C(=O)c4ccc(F)c(C6CCC(=O)NC6=O)c4)CC5)CC3)cc2cc1NC(=O)c1cccc(C(F)(F)F)n1 (stereo not drawn) [Example 40, N-(2-(1-(2-(3-(3-(2,6-dioxopiperidin-3-yl)-4-fluoro-benzoyl)-3-azaspiro [5.5]undec-9-yl)ethyl)piperidin-4-yl)-6-(2-hydroxyprop-2-yl)-2H-indazol-5-yl)-6-(trifluoro-methyl) pyridinecarbox-amide]	53.8 ± 2.0	35.1	4.8	98	9.8 ± 2.0
